The record followed here is patent US8143374B2, “Polypeptide derivatives of parathyroid hormone (PTH)” (The General Hospital Corporation, priority 2006, dated 2012).

For the assay, the target named is T1, wild-type human PTHR (Homo sapiens, UniProt Q03431).
T1 construct: expressed in transfected cells
T1 sequence (Q03431 27-593): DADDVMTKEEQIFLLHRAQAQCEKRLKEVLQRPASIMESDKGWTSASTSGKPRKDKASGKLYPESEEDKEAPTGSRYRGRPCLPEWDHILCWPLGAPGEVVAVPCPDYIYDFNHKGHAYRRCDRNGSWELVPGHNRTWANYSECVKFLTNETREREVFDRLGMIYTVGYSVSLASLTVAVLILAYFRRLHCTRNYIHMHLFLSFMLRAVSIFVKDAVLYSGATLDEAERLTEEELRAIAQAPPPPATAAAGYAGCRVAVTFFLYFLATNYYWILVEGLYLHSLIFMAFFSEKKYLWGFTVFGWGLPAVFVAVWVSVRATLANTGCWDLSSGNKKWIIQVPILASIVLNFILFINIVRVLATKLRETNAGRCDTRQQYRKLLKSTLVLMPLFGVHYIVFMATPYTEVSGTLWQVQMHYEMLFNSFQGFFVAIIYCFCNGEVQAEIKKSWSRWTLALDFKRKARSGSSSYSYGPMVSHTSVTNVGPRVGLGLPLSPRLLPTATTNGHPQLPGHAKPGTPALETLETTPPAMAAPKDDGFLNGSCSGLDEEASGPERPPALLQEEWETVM
In words: Competition binding in intact HKRK-B7 cells with 125I-PTH(1-34) tracer. Particulars: for reduction (alteration) of apparent binding affinity for the intact PTHR relative to parent peptide: versus the respective parent peptide. As to the method:
Cell Culture—Cells were cultured at 37° C. in a humidified atmosphere containing 5% CO2 in Dulbecco's modified Eagle's medium (DMEM), supplemented with 10% fetal bovine serum (HyClone, Logan Utah), 100 units/ml penicillin G, and 100 ug/ml streptomycin penicillin G/streptomycin (Invitrogen Corp. Carlsbad, Calif.). For binding and cAMP studies performed with the intact PTHR, the HKRK-B7 and ROS 17/2.8 cell lines were used. HKRK-B7 cells are derived from the porcine kidney cell line LLC-PK1 and express, via stable DNA transfection, the wild-type human PTHR at an approximate surface density of 950,000 PTH-binding sites per cell. ROS 17/2.8 cells are rat osteosarcoma cells and express the endogenous PTHR at an approximate surface density of 80,000 PTH-binding sites per cell. The cells were plated and assayed in 24-well plates.
Receptor binding—Binding to the wild-type human PTHR in intact HKRK-B7 cells and ROS 17/2.8 cells was assessed using ^125I-PTH(1-34) as a tracer radioligand, as described (Shimizu, M., (2001) Endocrinology 142:3068-3074). In brief, the cells in 24-well plates (about 500,000 cells per well) were incubated in binding buffer containing radioligand (about 100,000 cpm per well) with or without unlabeled peptide ligand (3×10^−9 to 1×10^−5 M) for four hours at 15° C. The binding mixture was then removed by aspiration, the cells were rinsed three times with binding buffer, lysed in 1 M NaOH, and the entire lysate was counted for gamma-irradiation in a gamma counter. Binding to PTHR-delNt in COS-7 cell membranes was assessed in 96-well, vacuum filtration plates (Multiscreen-Durapore HV, […] membranes, Millipore Corp., Millford, Mass.) using ^125I-[Aib^1,3,M]PTH(1-15)NH2 as a tracer radioligand, as described (Dean, T., (2006) Mol Endocrinol 20:931-942). In brief, cell membranes (20 μg/well) were incubated in membrane binding buffer containing radioligand (30,000 cpm/well) with or without unlabeled peptide ligand (3×10^−9 to 1×10^−5 M) for 90 minutes at 21° C. The plates were then subject to rapid vacuum filtration, the filters were washed once with buffer, detached from the plate and counted for gamma-irradiation in a gamma counter. Non-specific binding was defined as the binding observed in the presence of 1×10^−6 M PTH(1-31)NH2 for HKRK-B7 and ROS 17/2.8 cells, and 1×10^−6 M [Aib^1,3,M]PTH(1-15)NH2 for PTHR-delNt. Specifically bound radioactivity was calculated as a percentage of the radioactivity specifically bound in the absence of competing ligand.
Data and statistical calculations—Data were processed for curve fitting and derivation of IC50 and EC50 values using least-squares, nonlinear regression analysis and the four parameter logistic equation: […], where y, ymin and ymax are the observed, minimum and maximum response values, respectively; x is ligand concentration, and n is the slope factor. In cases where incomplete inhibition of binding occurred: i.e. with certain PTH(1-31) analogs binding to PTHR-delNt, the curve fits and IC50 values were derived by extrapolating the data to the maximum inhibition attained by [Aib^1,3,M]PTH(1-15)NH2. Paired data sets were statistically compared using a two-tailed Student's t-test, assuming unequal variances for the two sets.

Entries after “also recorded” stand apart in the source; their conditions may differ. Where a SMILES comes first, the peptide text is derived from it. Where no end group is shown, it is not given here. [ ]: non-standard residue; d: D form. Cha = N[C@@H](CC1CCCCC1)C(=O)O

As to `CC[C@H](C)[C@H](NC(=O)[C@H](CCC(=O)O)NC(=O)[C@H](CO)NC(=O)[C@@H](NC(=O)[C@H](C)N)C(C)C)C(=O)N[C@@H](CCC(N)=O)C(=O)N[C@@H](CC(C)C)C(=O)N[C@@H](CCSC)C(=O)N[C@@H](Cc1c[nH]cn1)C(=O)N[C@@H](CC(N)=O)C(=O)N[C@@H](CC(C)C)C(=O)NCC(=O)N[C@@H](CCCCN)C(=O)N[C@@H](Cc1c[nH]cn1)C(=O)N[C@@H](CC(C)C)C(=O)N[C@@H](CC(N)=O)C(=O)N[C@@H](CO)C(=O)N[C@@H](CCSC)C(=O)N[C@@H](CCCNC(=N)N)C(=O)N[C@@H](CC1CCCCC1)C(=O)N[C@H](C(=O)N[C@@H](CCC(=O)O)C(=O)N[C@@H](Cc1c[nH]c2ccccc12)C(=O)N[C@@H](CC(C)C)C(=O)N[C@@H](CCCNC(=N)N)C(=O)N[C@@H](CCCCN)C(=O)N[C@@H](CCCCN)C(=O)N[C@@H](CC(C)C)C(=O)N[C@@H](CCC(N)=O)C(=O)N[C@@H](CC(=O)O)C(=O)N[C@H](C(N)=O)C(C)C)C(C)C` [Arg^20→Cha, AlaValSerGluIleGlnLeuMetHisAsnLeuGlyLysHisLeuAsnSerMetArgChaValGluTrpLeuArgLysLysLeuGlnAspVal] (H-AVSEIQLMHNLGKHLNSMR[Cha]VEWLRKKLQDV-NH2; N-terminus assumed), the “reduction (alteration) of apparent binding affinity for the intact PTHR relative to parent peptide” value (HKRK-B7 cells) amounted to 120 fold.
Take “SVSEIQLMHNLGKHLNSMEEVEWLRKKLQDV [Arg^20→Glu]”: under “HKRK-B7 cells”, the “detectable binding to the intact PTHR (in words)” value was “abolished detectable binding; also recorded: complete loss of detectable binding affinity”.
Take “AVSEIQLMHNLGKHLNSMRRVEWLEKKLQDV-NH2 [Arg^25→Glu]”: under “HKRK-B7 cells”, the “reduction (alteration) of apparent binding affinity for the intact PTHR relative to parent peptide” value is given as “two- to five-fold reductions”.
On the same count and under the same terms, the value for “SVSEIQLMHNLGKHLNSMERVEALRKKLQDV-NH2 [Trp^23→Ala]” was 19 fold.
As for “SVSEIQLMHNLGKHLNSMRRVEWLRKKLQDV-NH2 [Glu^19→Arg]”, where the note is “HKRK-B7 cells, versus PTH(1-31)NH2”, the “enhancement in apparent PTHR-binding affinity relative to parent peptide” value was “≦two-fold”.
In the case of `CC[C@H](C)[C@H](NC(=O)[C@H](CCC(=O)O)NC(=O)[C@H](CO)NC(=O)[C@@H](NC(=O)[C@H](C)N)C(C)C)C(=O)N[C@@H](CCC(N)=O)C(=O)N[C@@H](CC(C)C)C(=O)N[C@@H](CCSC)C(=O)N[C@@H](Cc1c[nH]cn1)C(=O)N[C@@H](CC(N)=O)C(=O)N[C@@H](CC(C)C)C(=O)NCC(=O)N[C@@H](CCCCN)C(=O)N[C@@H](Cc1c[nH]cn1)C(=O)N[C@@H](CC(C)C)C(=O)N[C@@H](CC(N)=O)C(=O)N[C@@H](CO)C(=O)N[C@@H](CCSC)C(=O)N[C@@H](CCCNC(=N)N)C(=O)N[C@@H](CCCNC(=N)N)C(=O)N[C@H](C(=O)N[C@@H](CCC(=O)O)C(=O)N[C@@H](Cc1c[nH]c2ccccc12)C(=O)N[C@@H](CC(C)C)C(=O)N[C@@H](CCCNC(=N)N)C(=O)N[C@@H](CCCCN)C(=O)N[C@@H](CCCCN)C(=O)N[C@@H](CC(C)C)C(=O)N[C@@H](CCC(N)=O)C(=O)N[C@@H](CC1CCCCC1)C(=O)N[C@H](C(N)=O)C(C)C)C(C)C` [Asp^30→Cha] (H-AVSEIQLMHNLGKHLNSMRRVEWLRKKLQ[Cha]V-NH2; N-terminus assumed), the IC50 ([Ala1,Arg19]hPTH(1-31)NH2 analogs, intact HKRK-B7 cells, 125I-[Nle8,21,Tyr34]rPTH(1-34)NH2 tracer, read-out: PTHR-WT (HKRK-B7 cells) IC50) is 0.054 ± 0.007 µM.
Take “SVSEIQLMHNLGKHLNSMERVEWARKKLQDV-NH2 [Leu^24→Ala]”: the “reduction (alteration) of apparent binding affinity for the intact PTHR relative to parent peptide” value (HKRK-B7 cells) was 12 fold.
Still for that read-out and setting: the value for “AVSEIQLMHNLGKHLNSMRRVEWLREKLQDV-NH2 [Lys^26→Glu]” was “two- to five-fold reductions”.
Take “SVSEIQLMHNLGKHLNSMERVEWLRKKAQDV-NH2 [Leu^28→Ala]”: for the setting “HKRK-B7 cells”, the “reduction (alteration) of apparent binding affinity for the intact PTHR relative to parent peptide” value was “three- to four-fold”.
